This is an account of results in article PMC4076079, “Selective inhibitors of a PAF biosynthetic enzyme lysophosphatidylcholine acyltransferase 2” (Journal of Lipid Research, 2014).

Structures are written as SMILES.

For one experiment, the target named is T1, hLPCAT1 (Homo sapiens, UniProt Q8NF37).
T1 construct: expressed in transfected cells
T1 sequence (Q8NF37 1-534): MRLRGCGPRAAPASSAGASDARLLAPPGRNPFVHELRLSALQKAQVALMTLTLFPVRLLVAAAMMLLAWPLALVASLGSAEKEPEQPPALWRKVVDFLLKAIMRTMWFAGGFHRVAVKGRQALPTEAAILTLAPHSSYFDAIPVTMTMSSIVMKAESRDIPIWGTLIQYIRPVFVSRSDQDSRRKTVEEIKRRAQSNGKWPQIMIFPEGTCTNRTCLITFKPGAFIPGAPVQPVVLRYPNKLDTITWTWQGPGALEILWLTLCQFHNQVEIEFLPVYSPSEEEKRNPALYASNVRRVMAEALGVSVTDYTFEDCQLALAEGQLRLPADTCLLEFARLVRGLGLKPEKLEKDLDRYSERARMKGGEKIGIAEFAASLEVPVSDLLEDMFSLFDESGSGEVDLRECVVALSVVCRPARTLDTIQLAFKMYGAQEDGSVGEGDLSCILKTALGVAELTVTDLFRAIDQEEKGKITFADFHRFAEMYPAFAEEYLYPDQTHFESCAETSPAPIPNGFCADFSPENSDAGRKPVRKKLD
The experiment in a line: acyltransferase activity assay, DPPC product by LC-MS/MS. The conditions noted are these: for IC50: 0, 0.2, 0.6, 2, 6 and 20 μM of each compound in triplicate, LC-MS/MS, read-out: IC50, product DPPC, enzyme hLPCAT1; for percentage inhibition, product DPPC, hLPCAT1: 20 μM compound, microsomal fractions of nonstimulated CHO-S-PAFR cells, n = 3, mean ± SEM. The format is biochemical. The protocol: (§1) Microsomal protein fractions (0.5 μg) supplemented with the indicated compound concentrations were added to the reaction mixture containing 100 mM Tris-HCl (pH 7.4), 1 μM CaCl2, 0.015% Tween-20, and two substrates. For acetyltransferase activity, the substrates were 1 mM acetyl-CoA and 5 μM d4-lyso-PAF; for the acyltransferase activity of LPCAT1 or LPCAT2, the substrates were, respectively, palmitoyl-CoA and d31-16:0 LPC or arachidonoyl-CoA and d4-lyso-PAF (all 5 μM). Each lysophospholipid contained fatty acid at the sn-1 position. After incubation at 37°C for 5 min, the reactions were stopped by adding 300 μl methanol containing 17:0 LPC or 14:0/14:0 PC as an internal standard. Deuterium-labeled products were analyzed by LC-MS/MS (Waters, Milford, MA and Thermo Scientific, Waltham, MA). […]
Steps 2 to 5 screening: 96-well plate assay
Acetyltransferase and acyltransferase assays were developed in 96-well plates. The microsomal hLPCAT2, obtained from mcPAF-stimulated CHO-S-PAFR cells was used in steps 1, 2, and 5. The microsomal hLPCAT1 obtained from unstimulated CHO-S cells was used in steps 3 to 5. Each well of the 96-well plates contained 30 µl of 15 µg/ml protein, 600 nl of 2 mM compound, 30 µl buffer C, and two substrates (Fig. 1B and C).
Substrate concentrations were as follows: acetyl-CoA, 250 or 1000 µM acetyl-CoA; […]
arachidonoyl-CoA, 5 µM; palmitoyl-CoA, 5 µM; d4-lyso-PAF, 5 µM; and d31-LPC, 5 µM.
For step 5, compound concentrations were 0, 0.167, 0.67, 2, 6.7, and 20 µM. The deuterium-labeled products were measured by LC-MS/MS. Percentage inhibition (steps 2 to 4) or IC50 (step 5) was used as the hit criterion. […]
(§2) Step 7 screening: species-specific differences
(§3) To evaluate the effects on the activity of mouse or human LPCAT1 and LPCAT2, each microsomal fraction was obtained using CHO-S-PAFR cells with or without mcPAF (200 nM) stimulation for 5 min. Acetyltransferase and acyltransferase assays were performed with 20 µM of each compound. Percentage inhibition was calculated in each

The target of another experiment is T2, mLPCAT1 (Mus musculus, UniProt Q3TFD2).
T2 construct: expressed in transfected cells; host or cells: CHO-S-PAFR cells, microsomal fraction
T2 sequence (Q3TFD2 1-534): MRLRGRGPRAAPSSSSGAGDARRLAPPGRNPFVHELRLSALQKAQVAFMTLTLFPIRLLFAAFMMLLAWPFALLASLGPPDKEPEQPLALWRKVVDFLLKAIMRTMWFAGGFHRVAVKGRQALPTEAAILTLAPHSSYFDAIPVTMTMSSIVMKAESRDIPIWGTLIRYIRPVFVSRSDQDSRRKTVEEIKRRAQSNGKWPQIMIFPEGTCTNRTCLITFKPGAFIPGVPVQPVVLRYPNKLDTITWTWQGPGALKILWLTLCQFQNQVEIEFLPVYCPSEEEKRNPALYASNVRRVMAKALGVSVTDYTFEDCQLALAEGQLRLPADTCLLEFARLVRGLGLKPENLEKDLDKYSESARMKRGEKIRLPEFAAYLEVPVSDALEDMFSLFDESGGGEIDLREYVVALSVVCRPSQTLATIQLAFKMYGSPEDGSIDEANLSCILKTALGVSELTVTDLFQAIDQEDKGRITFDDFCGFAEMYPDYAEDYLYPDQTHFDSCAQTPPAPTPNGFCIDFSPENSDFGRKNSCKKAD
Description: acyltransferase activity assay, DPPC product. The format is biochemical. The conditions noted are these: 20 μM compound; microsomal fractions of nonstimulated CHO-S-PAFR cells; n = 3, mean ± SEM. The protocol:
as §1
arachidonoyl-CoA, 5 µM; palmitoyl-CoA, 5 µM; d4-lyso-PAF, 5 µM; and d31-LPC, 5 µM. […]
deuterium-labeled products were measured by LC-MS/MS. […]
as §2, §3

As a reminder, the IC50 is the concentration at which inhibition is half-maximal. With `CCCCOC(=O)c1ccc(N2C(=O)C(Cl)=C(Cl)C2=O)cc1` [TSI-11, butyl 4-(3,4-dichloro-2,5-dioxopyrrol-1-yl)benzoate], at hLPCAT1, the IC50 is > 20 µM and the “percentage inhibition, product DPPC, hLPCAT1” value was found to be 14.2 ± 4.8 percentage. Also, on mLPCAT1, the “percentage inhibition, product DPPC, mLPCAT1” value worked out at 12.2 ± 20.5 percentage.
For `O=C1C(Cl)=C(N2CCOCC2)C(=O)N1c1ccc(Oc2ccccc2)cc1` [TSI-02, 3-chloro-4-morpholin-4-yl-1-(4-phenoxyphenyl)pyrrole-2,5-dione], the IC50 at hLPCAT1 was > 20 µM.
Turning to `CC(C)OC(=O)c1ccc(N2C(=O)C(Cl)=C(Nc3ccccc3O)C2=O)cc1` [TSI-07], at hLPCAT1, the IC50 was > 20 µM and the “percentage inhibition, product DPPC, hLPCAT1” value was determined as 19.5 ± 8.0 percentage. The “percentage inhibition, product DPPC, mLPCAT1” value on mLPCAT1 worked out at 36.3 ± 5.7 percentage.
In the case of `CC(C)OC(=O)c1ccc(N2C(=O)C(Cl)=C(Cl)C2=O)cc1` [TSI-01, propan-2-yl 4-(3,4-dichloro-2,5-dioxopyrrol-1-yl)benzoate], at hLPCAT1, the IC50 was > 20 µM and the “percentage inhibition, product DPPC, hLPCAT1” value amounted to 25.3 ± 8.7 percentage. In addition, at mLPCAT1, the “percentage inhibition, product DPPC, mLPCAT1” value came to 28.2 ± 4.0 percentage.
Consider `CCCOC(=O)c1ccc(N2C(=O)C(Cl)=C(Cl)C2=O)cc1` [TSI-10], for which, at hLPCAT1, the IC50 is > 20 µM and the “percentage inhibition, product DPPC, hLPCAT1” value was 23.9 ± 3.4 percentage. For the same compound, the “percentage inhibition, product DPPC, mLPCAT1” value at mLPCAT1 is reported as 14.8 ± 10.9 percentage.
